Patent publication US9884042B2, “Formulations of cyclopropanecarboxylic acid {2-[(1S)-1-(3-ethoxy-4-methoxy-phenyl)-2-methanesulfonyl-ethyl]-3-oxo-2,3-dihydro-1H-isoindol-4-yl}-amide” (Celgene Corporation, priority 2011, dated 2018)

Legend:
[1] = test system: PDE4 enzyme from U937 human monocytic cells; assay: Enzyme assay using purified PDE4 enzyme; assay type: biochemical
Description: Cyclopropane carboxylic acid {2-[(1S)-1-(3-ethoxy-4-methoxy-phenyl)-2-methanesulfonyl-ethyl]-3-oxo-2,3-dihydro-1H-isoindol-4-yl}-amide (“Compound A”) is a novel compound with anti-inflammatory activity in clinical development for the treatment of a variety of chronic inflammatory conditions. Pharmacologically, Compound A blocks the degradation of cyclic adenosine monophosphate (cAMP) via inhibition of the phosphodiesterase type IV (PDE4) enzyme, resulting in an increase in cAMP in PDE4-expressing cells including monocytes, T cells, and neutrophils. Enzyme assay data using purified PDE4 enzyme from U937 human monocytic cells indicate that Compound A has a PDE4 IC50 of 100 nM (50 ng/mL). Compound A and methods for its synthesis are described, e.g., in U.S. Patent Publication No. 2010/0129363, the disclosure of which is hereby incorporated by reference in its entirety. Compound A may also be prepared according to the process described in U.S. Patent Publication No. 2010/0168475, the disclosure of which is hereby incorporated in its entirety.

[2] = Solubility of the drug substance; assay type: physicochemical; details: qualitative statement
Description: Due to its diversified pharmacological properties, Compound A is useful in treating, preventing, and/or managing various diseases or disorders.

For `CCOc1cc([C@@H](CS(C)(=O)=O)N2Cc3cccc(NC(=O)C4CC4)c3C2=O)ccc1OC` [Compound A, cyclopropanecarboxylic acid {2-[(1S)-1-(3-ethoxy-4-methoxy-phenyl)-2-methanesulfonyl-ethyl]-3-oxo-2,3-dihydro-1H-isoindol-4-yl}-amide], the IC50 [1] was 100 nM, the “PDE4 IC50” value ([1]; same value in mass units) was 0.05 µg/mL and the Solubility [2] was “poorly soluble”.
